For this test, the system named is splenic lymphoma. Briefly: Clinical use in splenic lymphoma. It counts as in vivo, human. The conditions noted are these: before addition of Ergoloid.

One substance from patent publication US20180125842A1, “Ergoloid for Cancer” (priority 2016, published 2018) can be followed below.

On to Rituxan: an immunotherapy, for which the “disease course on Rituxan alone” value is reported as “gradually allowing progression”.
